9 compounds from US11859252B2, “Diagnostic and therapeutic methods for cancer” (Genentech, Inc., priority 2017, dated 2024) can be followed below.

“Also recorded” adds a separate entry of the source.

Data set [1] has as its system KRAS mutant cell lines. The experiment in a line: 3-day […]-GLO viability assay of RAF inhibitors, KRAS mutant lines. It counts as cell-based. The following applies: single agent, FIG. 1A. How it is done:
(§1) Seeding densities were optimized for each cell line to obtain 70-80% confluence after 4 days. The cells were plated into 384-well plates (Griener, 781091) and then treated with compound the following day in a final DMSO concentration of 0.1%. The relative numbers of viable cells were measured by luminescence using CellTiter-Glo (Promega, G7573). Viability curves were generated using a four-parameter fit in GraphPad Prism 6.

Data set [2] has as its system BRAF-V600E cell lines. The data set is described as follows: 3-day […]-GLO viability assay of RAF inhibitors, BRAF-V600E lines. The following applies: single agent; BRAF-V600E mutant cell lines; FIG. 1A. It counts as cell-based. How it is done:
as §1

In data set [3] the test system is pMEK. The data set is described as follows: Phospho (Ser 217/221)/Total MEK1/2 assay. It counts as cell-based. The following applies: KRAS mutant; ratio of P-MEK and total MEK; FIG. 1B. How it is done:
Cells were plated at a density of 20,000 cells per 96-well and treated with compound the following day for two hours in a final concentration of 0.2% DMSO. After two hours, the cells were lysed according to manufacturer's protocol (Meso Scale Discovery, K15129D), and the lysates were added to BSA-blocked plates for overnight capture at 4° C. The following day the assay plates were washed three times with TBST and the detection antibody was added for one hour at RT. The plates were then washed three times with TBST. 1× read buffer was added to the plate and immediately read on the Meso Scale Discovery SECTOR Imager 6000. Curves were generated using Graph Pad Prism 6.

Data set [4] in a line: Plasma and tumor drug concentrations. It counts as in vivo, mice. The following applies: combination with GDC-0973, FIG. 3D.
The subject of data set [5] is A549 cells. The data set is described as follows: Clonogenic (colony growth) assay. The following applies: 8 days; crystal violet; FIG. 2F, 5E. It counts as cell-based. How it is done:
Cells were plated in duplicate in 6-well plates at 10,000 cells/well, allowed to attach overnight and treated for 8 days with the indicated compounds. Media with appropriate compounds was replenished every 72 hours. At 8 days cells were rinsed once with PBS, fixed and stained with crystal violet solution (Sigma Aldrich, HT90132) for 20 minutes and washed with water.

Data set [6] concerns NRAS mutant melanoma cell line. The experiment in a line: Viability of NRAS mutant melanoma versus BRAF-V600E and wild-type lines. The following applies: FIG. 8A. It counts as cell-based. How it is done:
Compounds were screened in nine-point dose response using a three-fold dilution. Cells were seeded into 384-well plates 24 hours prior to compound addition. Cells were then incubated with compound for 72 hours or 120 hours before assaying viability (CellTiter-Glo, Promega). Assays were performed in biological triplicate. […] Mean viability is equivalent to the area under the log-dose/viability curve divided by the total number of tested doses.

The subject of data set [7] is MAPK pathway signaling (pERK, pRSK, DUSP6, SPRY4). The experiment in a line: Tumor pharmacodynamics in tumor-bearing mice. It counts as in vivo. The following applies: combination of LY3009120 and GDC-0973 vs either alone, 4 days of treatment, FIG. 3C. How it is done: GEM model tumor samples were collected and stored in RNALater (Qiagen, Valencia, CA). Total RNA was extracted with RNeasy Plus Mini kit (Qiagen) following manufacturer's instructions. RNA quantity was determined using Nanodrop (Thermo Scientific, Waltham, MA).
Transcriptional readouts were assessed using either a Fluidigm instrument or standard RT-PCR assays according to manufacturer's recommendations. RNA (100 ng) was subjected to cDNA synthesis/pre-amplification reactions using the Applied Biosystems High Capacity cDNA RT Kit and TaqMan PreAmp Master Mix as per the manufacturer's protocol (Life Technologies, Carlsbad, CA). […]
To prepare protein lysates, cells were washed once with ice-cold PBS and lysed in 1× Cell Extraction Buffer (Invitrogen) supplemented with protease inhibitor tablet (Roche) and phosphatase inhibitors (Sigma). Protein concentration was determined using BCA Protein Assay (Pierce). […] Antigen-antibody interaction was detected with HRP-conjugated goat anti-rabbit and goat anti-mouse antibodies (Jackson ImmunoResearch) using enhanced chemiluminescence detection reagents (Pierce) or with IRDye 800 conjugated, affinity purified anti rabbit IgG (LI-COR Biosciences) and Alexa Fluor 680 goat anti mouse IgG (Life Technologies) secondary antibodies using the Odyssey Infrared Imaging System (LI-COR Biosciences).

Data set [8] deals with HCT116 colon xenograft tumor. The experiment in a line: HCT116 colon xenograft tumor model.
Procedure: The formulations were mixed well by vortexing before dosing. Test articles were stored in a refrigerator set to maintain a temperature range of 4° C.-7° C.
Only animals that appeared to be healthy and that were free of obvious abnormalities were used for each study. Tumor volumes were determined using digital calipers (Fred V. Fowler Company, Inc.) using the formula (L×W×W)/2. […] Mice were weighed twice a week using a standard scale.
The test system of data set [9] is A549 cells. The data set is described as follows: 12×12 matrix titration, Bliss excess, […]-GLO. It counts as cell-based. To be noted: 3 days. As to the method:
For combination synergy studies, cells were plated in 384-well plates (Corning) and treated with varying concentrations of compound, either alone or in combination for 72 hours. Cell viability was determined using CellTiter-Glo Luminescent Cell Viability Assay (Promega, G7573). Synergistic effects were determined using the Bliss independence analysis methods (Greco et al. Pharmacol. Rev. 47: 331-385, 1995; Chou and Talalay. Adv. Enzyme Regul. 22:27-55, 1984; Chou. Cancer Res. 70: 440-446, 2010; Bliss. Ann. Appl. Biol. 25: 31, 1939).

In data set [10] the test system is A549 KRAS-mutant lung cancer cell line. The experiment in a line: Tool compound combination screen with AZ-628. It counts as cell-based. To be noted: 1 μM AZ-628 versus DMSO, FIG. 1D-1E. As to the method: A compound library comprising 480 compounds arrayed in 9-point dose response was screened in the absence or presence of a fixed dose of either AZ-628 or DMSO in A549 cells. A549 cells were seeded into 384 well plates, and compound was added 24 h later. Cell viability was determined 120 h post-compound addition (CellTiter Glo). Curves were fitted, and both IC50 and mean viability metrics were calculated. The IC50 is the dose at which inhibition is 50% relative to untreated wells. The mean viability is the average of the fitted viabilities at each tested dose. Mean viability is equivalent to the area under the log-dose/viability curve divided by the total number of tested doses. All data were fitted using Genedata Screener (GDS) software. The combination metric was the difference in mean viability between the AZ-628 treated arm and the DMSO treated arm for each compound.

Data set [11] relates to pMEK, pERK, pRSK, pAKT. The experiment in a line: Immunoblot of pathway markers after compound treatment. It counts as cell-based. The following applies: for induction of pMEK by PI3K inhibition: A549 and HCT116 cells, FIGS. 7B-7D. As to the method: Cells lysed in lysis buffer (0.5% NP40, 20 mM Tris, pH 7.5, 137 mM NaCl, 10% glycerol, 1 mM EDTA) plus protease inhibitor mixture-complete mini (Roche Applied Science, 11836170001) and phosphatase inhibitor mix (Thermo, 78426). Lysates were centrifuged at 15,000 rpm for 10 minutes and the protein concentration determined using BCA (Thermo, 23227). Equal amounts of protein were subjected to SDS-PAGE NuPAGE 4-12% Bis-Tris Gel (Novex, WG-1403) and transferred to nitrocellulose membrane (BioRad, 170-4159). After blocking in blocking buffer (Li-Cor, 927-40000), membranes were incubated with the indicated primary antibodies and analyzed either by the addition of secondary antibodies IRDye 680LT Goat anti-Mouse IgG (H+L) (Li-Cor, 926-68050) or IRDye 800CW goat anti-Rabbit IgG (H+L) (Li-Cor, 926-32211). The membranes were visualized on the LiCor Odyssey CLx Scanner.
A general note: Immunoblotting shows a protein as a band on a membrane.

Data set [12] concerns RAS-GTP. The data set is described as follows: Ras activity assay (RAF1-RBD pull-down). The following applies: A549, 24 hours, RAF1-RBD pull-down, FIG. 7E. It counts as cell-based. As to the method:
Levels of active GTP-loaded Ras were determined by GST-Raf-RBD pull-down assay (Thermo Scientific, 16117). In brief, GST-Raf-RBD fusion proteins were incubated with glutathione beads, and cells were collected in lysis buffer as recommended by the manufacturer. The cell lysates were incubated with the GST-Raf-RBD immobilized beads for 1.5 hours at 4° C. Bound proteins were eluted with SDS sample buffer and analyzed by Western blot.

Regarding `CC(C)(C)c1nc(-c2cccc(NS(=O)(=O)c3c(F)cccc3F)c2F)c(-c2ccnc(N)n2)s1` [dabrafenib], the “activity in cell viability assay” value in data set [1] is “but not in KRAS mutant cell lines”; in [2] it was “showed activity in BRAF-V600E mutant cell lines”. The “paradoxical activation of downstream pMEK” value in data set [3] is “led to paradoxical activation of downstream pMEK in KRAS mutant tumors”.

In the case of `CNc1ncc2cc(-c3cc(NC(=O)NCCC(C)(C)C)c(F)cc3C)c(C)nc2n1` [LY3009120], the “drug exposure in combination” value in [4] is “not due to increased drug exposure”. The “synergy with cobimetinib in colony formation” value in [5] is “marked synergy”. Moreover, in [6], the “effect on mean viability, NRAS mutant vs BRAF-V600E” value is recorded as “approximately equivalent effects on mean viability”. For the same compound, the “suppression of DUSP6 and SPRY4 in tumor” value in data set [7] is “deeper suppression of downstream MAPK target genes, DUSP6 and SPRY4”. Besides, the “suppression of pERK and pRSK in tumor” value in data set [7] (all time points) is “better suppression of pERK and pRSK”. Besides, the “tumor growth, combination with cobimetinib” value in data set [8] (HCT116, LY3009120+GDC-0973, FIG. 3A) is on record as “capable of effectively regressing the tumors”. In addition, in data set [8] (HCT116, LY-3009120 25 mg/kg IP QD, cobimetinib 5 mg/kg PO QD, FIG. 3A), the “tumor growth, single agent” value is on record as “modestly inhibited tumor growth”. The “tolerability / body weight” value in data set [8] (HCT116 xenograft mice, combination with cobimetinib, FIG. 3B) is reported as “well tolerated in the mice, resulting in little or minimal changes in body weight post-treatment”.

`O=C(c1c(F)ccc(NS(=O)(=O)N2CC[C@@H](F)C2)c1F)c1c[nH]c2ncc(-c3cnc(C4CC4)nc3)cc12` [PLX-8394]: the entries for the “activity in cell viability assay” value in data set [1] and in data set [2] were “but not in KRAS mutant cell lines” and “showed activity in BRAF-V600E mutant cell lines”, respectively. Also, in data set [3], the “paradoxical activation of downstream pMEK” value is on record as “do not induce paradoxical activation”. Moreover, in data set [9] (FIG. 2A), the “synergy with cobimetinib (Bliss excess)” value is given as “did not synergize with MEK inhibitors in KRAS mutant cell lines”.

`O=C(NC[C@H](O)CO)c1ccncc1Nc1ccc(I)cc1F` [pimasertib]: the “hit ranking / mean viability difference with AZ-628” value in [10] was “scored highest among the compounds tested”.

Turning to `Cc1nc(-c2cn3c(n2)-c2ccc(-c4cnn(C(C)(C)C(N)=O)c4)cc2OCC3)n(C(C)C)n1` [taselisib], the “hit ranking / mean viability difference with AZ-628” value in [10] is given as “notable hits”. Also, the “induction of pMEK by PI3K inhibition” value in [11] (24 hours) was “doing so at lower concentrations”.

Turning to `CS(=O)(=O)N1CCN(Cc2cc3nc(-c4cccc5[nH]ncc45)nc(N4CCOCC4)c3s2)CC1` [pictilisib], the “hit ranking / mean viability difference with AZ-628” value in [10] was “notable hits; also recorded: among the top hits of the screen”. Also, the “pERK and pRSK levels” value in data set [11] (A549, 24 hours, dose-dependent, FIG. 7D) was “increased pERK and pRSK levels”. In addition, in data set [11] (A549, pictilisib alone, 24 hours, FIG. 7G), the pAKT inhibition entry was “robustly inhibit pAKT”. The “induction of pMEK by PI3K inhibition” value in data set [11] (24 hours) was “doing so at lower concentrations; also recorded: dose-dependent induction of pMEK”. The RAS-GTP levels entry in data set [12] is listed as “dose-dependent induction of RAS-GTP levels”; in data set [12] (listed as Pictilisib), “increase levels of RAS-GTP (albeit at higher concentrations) similar to that induced by cobimetinib”.

`COc1cc(F)c(F)c(Nc2ccc(I)cc2F)c1NS(=O)(=O)C1(C[C@H](O)CO)CC1` [refametinib]: the “hit ranking / mean viability difference with AZ-628” value in data set [10] was “scored highest among the compounds tested”.

Consider `O=C(NOC[C@H](O)CO)c1ccc(F)c(F)c1Nc1ccc(I)cc1F` [PD901], for which the “hit ranking / mean viability difference with AZ-628” value in data set [10] is “scored highest among the compounds tested”.

Consider `CNS(=O)(=O)Nc1nccc(Cc2c(C)c3ccc(Oc4ncccn4)cc3oc2=O)c1F` [CH-6766], for which, in data set [11] (A549 cells, 24 hours at 1 μM, FIG. 1F), the “induction of pMEK” value is recorded as “do not induce pMEK”. The “synergy with AZ-628 (Bliss excess)” value in data set [9] (full-dose Bliss matrix, FIG. 1G) is recorded as “less synergistic with AZ-628”.
